Experimental data taken from publication PMC6934184, “Selective DNA-PKcs inhibition extends the therapeutic index of localized radiotherapy and chemotherapy” (The Journal of Clinical Investigation, 2019).

Biological target: T1, FGFR3 K650E (Homo sapiens, UniProt P22607, K650E)
T1 construct: purchased Thermo Fisher Scientific (Life Technologies) SelectScreen
Assay: SelectScreen Z'LYTE
Assay type: biochemical
How it was run: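 Percent values come from Thermo SelectScreen profiling of NU5455, combining activity and binding assays. CSF1R was run in Z'LYTE format at Km app ATP, and CAMK1 in Adapta format with ATP listed at 10.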

T1 sequence (P22607 23-806 K650E): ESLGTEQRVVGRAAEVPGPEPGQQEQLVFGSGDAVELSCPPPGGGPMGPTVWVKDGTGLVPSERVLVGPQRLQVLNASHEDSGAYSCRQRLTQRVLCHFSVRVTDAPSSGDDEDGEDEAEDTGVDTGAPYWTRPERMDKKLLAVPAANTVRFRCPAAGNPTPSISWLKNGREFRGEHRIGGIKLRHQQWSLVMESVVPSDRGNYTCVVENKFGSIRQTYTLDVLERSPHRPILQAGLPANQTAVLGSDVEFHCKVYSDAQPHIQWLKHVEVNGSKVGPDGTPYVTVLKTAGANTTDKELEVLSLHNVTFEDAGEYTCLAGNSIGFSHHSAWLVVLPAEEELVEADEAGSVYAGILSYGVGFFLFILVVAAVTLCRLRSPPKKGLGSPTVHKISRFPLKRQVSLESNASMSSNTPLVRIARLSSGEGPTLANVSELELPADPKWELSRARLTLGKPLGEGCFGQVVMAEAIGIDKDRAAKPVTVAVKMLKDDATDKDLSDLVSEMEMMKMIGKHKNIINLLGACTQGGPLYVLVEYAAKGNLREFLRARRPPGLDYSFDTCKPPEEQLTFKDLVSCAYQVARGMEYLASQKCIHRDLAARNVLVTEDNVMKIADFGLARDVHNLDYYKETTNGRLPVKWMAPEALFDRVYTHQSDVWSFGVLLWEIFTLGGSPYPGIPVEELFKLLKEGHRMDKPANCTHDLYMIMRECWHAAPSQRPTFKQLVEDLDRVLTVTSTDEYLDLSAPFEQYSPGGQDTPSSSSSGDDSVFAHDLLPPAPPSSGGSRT

CN(C(=O)CN1CCOCC1)c1ccc2sc3c(-c4cccc5c(=O)cc(N6CC7CCC(C6)O7)oc45)cccc3c2c1 [NU5455]
inhibition at 1 µM: 7.9%
